Experimental findings from US20260242738A1, “ALK5 INHIBITORS FOR EFFICIENT DERIVATION OF MESENCHYMAL STEM CELLS FROM EMBRYONIC STEM CELLS” (SCRIPPS HEALTH, priority 2022, published 2026) are described below.

The test system of one test is HAD ES-MSC. The test can be described thus: Fibrin-ECM hydrogel construct culture on needle array. Particulars: 20×10^6 cells per ml, 3 weeks of culture, N=8. The class given is cell-based, human. The protocol:
Monolayer cultured ES-MSC were suspended in a hydrogel wafer composed of collagen II (Innovative Research Inc. Novi, MI), hyaluronate (Supartz FX sodium hyaluronate, Seikagaku Corp. Tokyo, Japan), chondroitin sulfate (Sigma-Aldrich) and fibrin (Baxter Healthcare, Deerfield, IL) at a density of 20×10^6 cells per ml. The fibrinogen and thrombin components were prepared separately. To each fibrinogen component, 2 mg/ml sodium hyaluronate, 2 mg/ml chondroitin sulfate and 6 mg/ml collagen II was added (2× concentration of final). Cells were added to the thrombin component at a density of 40×10^6 cells per ml. Thrombin and fibrinogen components in individual syringes were attached to a Baxter DUO mixing syringe and extruded to form the coagulated constructs. The constructs were either directly implanted into ex vivo cartilage tissue or coagulated in 6 well tissue culture plates for 4 to 8 minutes before 4-6 ml of chondrogenic medium was added. To prevent shrinkage of the constructs during culture, the gels were held on AdminPatch microneedle arrays (AdminMed, Sunnyvale, CA) for the duration of their culture.
Cell pellets and explants were fixed in Z-Fix (3.7% formaldehyde, Anatech Ltd., Battle Creek, MI), processed for embedding in paraffin, and cut into 4 μm-thick sections. Sections were stained with Safranin-O and Fast Green to visualize glycosaminoglycan distribution in the tissues. […]

For another test, the system named is ES-MSC. Description: ES-MSC seeded scaffolds implanted subcutaneously into a nude mouse. The class given is in vivo. Particulars: 1 week in vitro, then subcutaneous in nude mouse for 5 weeks. The text has this: ES-MSC derived from treatment with ALK-5 inhibitor SB525334, as described in Example 1, produced meniscus cartilage-like tissues when seeded upon blow spun collagen scaffolds in in vitro and in vivo.

On to `NC(=O)c1ccc(-c2nc(-c3ccc4c(c3)OCO4)c(-c3ccccn3)[nH]2)cc1` [SB431542], for which the “cartilaginous tissue in fibrin-ECM construct (Safranin O fast green)” value in the test on HAD ES-MSC was “production of cartilaginous tissue”. Regarding `Cc1cccc(-c2[nH]c(C(C)(C)C)nc2-c2ccc3nccnc3c2)n1` [SB525334], the “meniscus cartilage-like tissue, Safranin O staining” value in the test on ES-MSC is on record as “strong Safranin O staining profile”.
